How the values were obtained:
[1] = Motor coordination in rats (rotarod, Dunham and Miya 1957)
[2] = Aggressive behavior elicited by foot shock; type: in vivo; details: oral
Excerpt: The aggressive behavior of test animals was elicited by a conventional foot shock procedure after administration of Compounds 1 and 4.

[3] = Postural tonus in restrained animals; type: in vivo
Excerpt: The final observations were concerned with the influence of the test compounds on postural tonus. Evaluationg postural tonus in the animals kept in restraint cages was somewhat difficult. It was possible to judge this aspect by pulling the hind quarters of the animals out of the cage and observing whether the animals was capable of returning spontaneously to its position inside the cage, which control animals were able to do immediately.

[4] = Spontaneous mobility (Svenson and Thieme); type: in vivo; details: po; read-out: oral ED50 (depressing spontaneous mobility)
Experimental: Spontaneous mobility in test animals was determined by the Svenson and Thieme procedure as published in Psychopharmacologia, Vol. 14, 1969, pages 157 et seq.

[5] = Modifications in the electrocorticogram (ECoG) of unanesthetized animals, R index; type: in vivo
Experimental: Twenty-four hours prior to the test, the surface of a test animal's skull was exposed and stainless steel electrodes were screwed through the lamina externa to make contact with the dura matter in the frontal, parietal and occipital regions, on both sides of the median and transverse sutures. The ECoG was recorded on a REEGA MINI HUIT (Alvar Electronic) encephalograph with a transverse circuit, with bi-frontal, bi-parietal and bi-occipital leads and a longitudinal circuit, with fronto-pariental and parieto-occipital leads on both left and right. One track was used to record respiration, with leads from two steel needles placed under the shin, on either side of the thorax.
Some test animals were kept in restraint cases placed in a relatively soundproof room and some were left free to move in metal cases measuring 40×50×30 cm, which were also kept in a relatively quiet environment.
The activity of the test compounds studied was judged on the one hand by the pattern of spontaneous electrogenesis, especially by the relative degree to which the three basic rhythms of the ECoG in the animals were represented; the theta rhythm (4-8 c/sec.), predominant and characteristic of the state of wakefulness in the posterior regions; bursts of rapid spiked waves (alpha rhythm, 9-15 c/sec.) recorded in the course of diffused wakefulness, and slow waves (delta rhythm, 0.5-3 c/sec.) which are absent in a state of wakefulness except in pathological conditions or in the presence of medicinal substances, a rhythm characteristic of slow-wave sleep. The rapid, low-voltage beta rhythm, not very characteristic of the ECoG in the test animals used and primarily superimposed on the other rhythms, was not analyzed.
Possible modifications in cortical reactivity were also investigated, using two types of stimulation, one comprised an auditory stimulus (whistle blasts) and the other a nociceptive stimulus delivered to the cutaneous nerve endings by pinching the dorsal skin with Kocher's clamps.
To the foregoing qualitative analysis, a quantitative analysis concerning the evolution of spontaneous electrogenesis under the influence of test compounds 1 and 4 was added. The activity of the two compounds was judged by variations in an "R" index, defined as the ratio between the theta waking rhythm, slow waves and bursts of rapid spiked waves. Initially, R was evaluated quantitatively on a scale from 0 to 4 and after this initial estimate, variations in the R index were rated on a scale from 0 to 5 as follows:
1. Maintenance of the value calculated in making the reference tracking (basal value) 0 since variation is nil.
2. Reduction in basal values
(a) reduction of basal value by one-half -1.
(b) observed value between 1/2 and 1/5 of basal value -2.
(c) observed value between 1/5 and 1/10 of basal value -3.
(d) observed value between 1/10 and 1/20 of basal value -4.
(e) observed value lower than 1/20 of basal value, reflecting maximum perturbation of spontaneous ECoG and expressing either a pathological condition or a state of slow-wave sleep, with the absence of theta rhythms and the exclusive presence of slow waves and/or bursts of rapid spiked waves -5.
Once the various values were allocated to each animal, the mean of these values were calculated for each experimental period. From these means, calculations were made of the percentages of variation as compared to a theoretical maximum value of -5 for each experimental period. The percentage for each period was calculated every 30 minutes for 7 hours, with a theoretical total of -10 per hour, then between 7 and 48 hours (theoretical total […]) and between the time of administering the test compound and the 48th hour (theoreticaltotal -90). Variations of 10% were not regarded as significant. All dosages were administered intragastrically through the esophageal tube. […]

[6] = 7.5 mg/kg intragastric, 2 Hours
[7] = 7.5 mg/kg intragastric, 3 Hours
[8] = 7.5 mg/kg intragastric, 4 Hours
[9] = 7.5 mg/kg intragastric, 5 Hours
[10] = 7.5 mg/kg intragastric, 6 Hours
[11] = 7.5 mg/kg intragastric, 7 Hours
[12] = 7.5 mg/kg intragastric, 48 Hours (7-48 h)
[13] = 7.5 mg/kg intragastric, After 48 Hours (0-48 h total)
[14] = 15.0 mg/kg intragastric, 1 Hour
[15] = 15.0 mg/kg intragastric, 2 Hours
[16] = 15.0 mg/kg intragastric, 3 Hours
[17] = 15.0 mg/kg intragastric, 4 Hours
[18] = 15.0 mg/kg intragastric, 5 Hours
[19] = 15.0 mg/kg intragastric, 6 Hours
[20] = 15.0 mg/kg intragastric, 7 Hours
[21] = 15.0 mg/kg intragastric, 48 Hours (7-48 h)
[22] = 15.0 mg/kg intragastric, After 48 Hours (0-48 h total)
[23] = 30.0 mg/kg intragastric, 1 Hour
[24] = 30.0 mg/kg intragastric, 2 Hours
[25] = 30.0 mg/kg intragastric, 3 Hours
[26] = 30.0 mg/kg intragastric, 4 Hours
[27] = 30.0 mg/kg intragastric, 5 Hours
[28] = 30.0 mg/kg intragastric, 6 Hours
[29] = 30.0 mg/kg intragastric, 7 Hours
[30] = 30.0 mg/kg intragastric, 48 Hours (7-48 h)
[31] = 30.0 mg/kg intragastric, After 48 Hours (0-48 h total)

SMILES: C#CCN1C(=O)CN=C(c2ccccc2Cl)c2cc(Cl)ccc21 [Compound 4, 7-chloro-2,3-dihydro-5-(2-chlorophenyl)-1-propargyl-1,H-1,4-benzodiazepine-2-one]
- % Uncoordinated Animals ([1]; 12 mg/kg/os): 37.5%
- % Uncoordinated Animals ([1]; 17 mg/kg/os): 50%
- % Uncoordinated Animals ([1]; 24 mg/kg/os): 87.5%
- Potency Against Comp. 1 ([1]; C.L. (3.09. 6.79), X^2 parallelism 0.005): 4.58
- TD50 ([1]; rat, rotarod, po): 14.9 mg/kg
- ED50 [2]: 2.7 mg/kg
- animals with no attempt to resume previous posture ([3]; 30 mg/kg, at 21/2 hours): one animal out of every three
- reduction in postural tonus ([3]; more pronounced effect of compound 4 especially at 30 mg/kg): slightly more pronounced effect
- ED50 [4]: 20.1 mg/kg
- duration of effect on spontaneous electrogenesis ([5]; 1.5 mg/kg): 2 h
- latency of the effects ([5]; 1.5 mg/kg): 25 min
- average duration of effect on spontaneous electrogenesis ([5]; 3.75 mg/kg): 4 h
- R index variation, Mean ([5]; 7.5 mg/kg intragastric, 1 Hour): -9.5
- R index, % of Variation ([5]; 7.5 mg/kg intragastric, 1 Hour): -63.3%
- R index variation, Mean [5, 6]: -7.5
- R index, % of Variation [5, 6]: -75.0%
- R index variation, Mean [5, 7]: -6.0
- R index, % of Variation [5, 7]: -60.0%
- R index variation, Mean [5, 8]: -3.0
- R index, % of Variation [5, 8]: -30.0%
- R index variation, Mean [5, 9]: -4.5
- R index, % of Variation [5, 9]: -45.0%
- R index variation, Mean [5, 10]: -1.5
- R index, % of Variation [5, 10]: -15.0%
- R index variation, Mean [5, 11]: -1.00
- R index, % of Variation [5, 11]: -10.0%
- R index variation, Mean [5, 12]: 0
- R index, % of Variation [5, 12]: 0%
- R index variation, Mean [5, 13]: -33.0
- R index, % of Variation [5, 13]: -36.7%
- R index variation, Mean [5, 14]: -13.0
- R index, % of Variation [5, 14]: -86.7%
- R index variation, Mean [5, 15]: -8.5
- R index, % of Variation [5, 15]: -85.0%
- R index variation, Mean [5, 16]: -7.0
- R index, % of Variation [5, 16]: -70.0%
- R index variation, Mean [5, 17]: -5.5
- R index, % of Variation [5, 17]: -55.0%
- R index variation, Mean [5, 18]: -5.0
- R index, % of Variation [5, 18]: -50.0%
- R index variation, Mean [5, 19]: -1.5
- R index, % of Variation [5, 19]: -15.0%
- R index variation, Mean [5, 20]: -1.50
- R index, % of Variation [5, 20]: -15.0%
- R index variation, Mean [5, 21]: +1.50
- R index, % of Variation [5, 21]: +10.0%
- R index variation, Mean [5, 22]: -40.5
- R index, % of Variation [5, 22]: -45.0%
- Cortical reactivity induced by exteroceptive stimulation ([5]; 30 mg/kg): remained unchanged
- R index variation, Mean [5, 23]: -6.99
- R index, % of Variation [5, 23]: -46.7%
- R index variation, Mean [5, 24]: -5.32
- R index, % of Variation [5, 24]: -53.2%
- R index variation, Mean [5, 25]: -6.32
- R index, % of Variation [5, 25]: -63.2%
- R index variation, Mean [5, 26]: -4.99
- R index, % of Variation [5, 26]: -49.9%
- R index variation, Mean [5, 27]: -2.99
- R index, % of Variation [5, 27]: -29.9%
- R index variation, Mean [5, 28]: -2.33
- R index, % of Variation [5, 28]: -23.3%
- R index variation, Mean [5, 29]: -0.66
- R index, % of Variation [5, 29]: -6.6%
- R index variation, Mean [5, 30]: -1.98
- R index, % of Variation [5, 30]: -13.2%
- R index variation, Mean [5, 31]: -31.58
- R index, % of Variation [5, 31]: -35.1%
- duration of effects on spontaneous electrogenesis ([5]; 7.5, 15 and 30 mg/kg): at least 5 hours

Reference: patent US4313943A, “7-Chloro-2,3-dihydro-5-phenyl-1-propargyl-1H-1,4-benzodiazepine-2-one, and a pharmaceutical composition thereof” (priority 1972, dated 1982)
